Experimental data as given in US20260176289A1, “SMALL MOLECULE INHIBITORS OF KRAS PROTEINS” (Merck Sharp & Dohme LLC, priority 2022, published 2026).

Assays:
KRAS-G12V = KRAS-G12V (Homo sapiens, UniProt P01116, G12V); experiment: SOS-catalyzed nucleotide exchange assay (Procedure A, TR-FRET), KRAS-G12V; assay type: biochemical; conditions: nucleotide exchange, read-out: KRAS G12V GNE IC50
Source text: (§1) Procedure for SOS-Catalyzed Nucleotide Exchange Assay for KRAS-WT, G12C/D/V, G13D, HRAS, and NRAS (Procedure A)
(§2) Recombinant KRAS-G12C protein used in this assay has an additional triple mutation (C51S/C80L/C118S). Whereas KRAS-WT, G12D/V, G13D, HRAS and NRAS are in context of their WT protein sequence background. Specifically, the SOS-catalyzed nucleotide exchange assay utilizes a preformed TR-FRET complex containing a specific biotinylated RAS protein (KRAS-WT, G12C/V/D, G13D, HRAS, NRAS; described above) with Bodipy-GDP, and Terbium-streptavidin. Compounds are preincubated with this complex for 60 minutes. Subsequently, recombinant human SOS protein and unlabeled GTP are added to initiate the exchange reaction. Small molecule inhibitors stabilize the Bodipy-GDP complex whereas the untreated protein rapidly exchanges Bodipy-GDP for unlabeled GTP resulting in reduced TR-FRET signal.
(§3) To assemble the preformed TR-FRET complexes, each biotinylated RAS protein is diluted to 2 μM in an EDTA Buffer (20 mM HEPES pH 7.5, 50 mM sodium chloride, 10 mM EDTA, and 0.01% Tween) and incubated at room temperature for one hour. This mixture is then further diluted to 90 nM in an Assay Buffer (20 mM HEPES pH 7.5, 150 mM sodium chloride, 10 mM magnesium chloride, and 0.005% Tween) containing 15 nM of Terbium-Streptavidin (Invitrogen, catalog #PV3577) and 900 nM of Bodipy-GDP (Invitrogen, catalog #G22360) and incubated at room temperature for six hours. It should be noted that this preformed TR-FRET complex for each of the RAS protein were made ahead of time, aliquoted and stored at −80° C. until the day of the experiment.
(§4) Each test compound (10 mM stock in DMSO) is diluted in DMSO to make a final-10-point, 3-fold dilution and is acoustically dispensed into a 384-well assay plate (Corning, catalog #3820) using an Echo 550 (Labcyte). Each well of the assay plate receives 3 μL of a specific 3×RAS preformed TR-FRET complex and 3 μL of Assay Buffer and is incubated at room temperature for 60 minutes (preincubation time). Each well then receives 3 μL of 3×recombinant human SOS protein and GTP (Sigma, G8877) in Assay Buffer and is incubated at room temperature for 30 minutes (G13D), 60 minutes (KRAS WT/G12C/D, H/NRAS) or 90 minutes for G12V. The final reaction in each well of 9 μL consists of 3 mM GTP, specific Ras and SOS proteins in the following concentrations: KRAS-G12C/SOS=3 nM/40 nM, KRAS-WT and G12D/SOS=1 nM/40 nM, KRAS-G12V/SOS=1.25 nM/160 nM. KRAS-G13D/SOS=1.25 nM/0 nM, HRAS and NRAS=1.25 nM/40 nM.
(§5) The time-resolved fluorescence resonance energy transfer (TR-FRET) signal is measured on an Envision (PerkinElmer) plate reader: Excitation filter=340 nm; emission 1=495 nm; emission2=520 nm; dichroic mirror=D400/D505; delay time=[…]. The signal of each well is determined as the ratio of the emission at 520 nm to that at 495 nm. Percent effect of each well is determined after normalization to control wells containing DMSO (no effect) or a saturating concentration of inhibitor (max effect). The apparent effect as a function of compound concentration is fit to a four-parameter logistic equation.

KRAS-WT = KRAS-WT (Homo sapiens, UniProt P01116); experiment: SOS-catalyzed nucleotide exchange assay (Procedure A, TR-FRET), KRAS-WT; assay type: biochemical; conditions: nucleotide exchange, read-out: KRAS WT GNE IC50
Source text: as §1, §2, §3, §4, §5

AsPC-1 cells = experiment: Cellular phospho-ERK assay, AsPC-1 cells (homozygous KRAS-G12D); assay type: cell-based; conditions: Homo sapiens, ASPC1, 2 h, KRAS-G12D, 2 hours, read-out: AsPC1 pERK IC50
Procedure: Procedure for Cellular Phospho-ERK Assay in KRAS Wild Type and Mutant (G12D, G12V) Cell Lines
MKN-1 cells (JCRB JCRB0252) containing amplified wild-type KRAS, were cultured in growth medium that contains RPMI 1640-GlutaMAX™-I (ThermoFisher Scientific 61870) containing 10% heat inactivated fetal bovine serum (ThermoFisher Scientific 10091148), 1 mM sodium pyruvate and 10 mM HEPES. PANC08.13 cells (ATCC® CRL-2551™), containing homozygous KRAS-G12D activating mutation, were cultured in growth medium made of RPMI1640-GlutaMAX™-I (ThermoFisher Scientific 61870) containing 15% heat inactivated fetal bovine serum (ThermoFisher Scientific 10091148)). AsPC-1 cells (ATCC® CRL-1682™), containing homozygous KRAS-G12D activating mutation, were cultured in T150 flask in growth medium (RPMI medium 1640-GlutaMAX™-I (ThermoFisher Scientific 61870) containing 10% fetal bovine serum (ThermoFisher Scientific 10091148)). SW620 cells (ATCC® […]), containing homozygous KRAS-G12V activating mutation, were cultured in growth medium that contains RPMI 1640-GlutaMAX™-I (ThermoFisher Scientific 61870) containing 10% heat inactivated fetal bovine serum (ThermoFisher Scientific 10091148).
Cells for the assay were harvested in growth medium after TrypLE (ThermoFisher scientific 12604021) digestion and were seeded in a 384-well collagen coated cell culture plate (Corning 356702) at a density of 10,000-15,000 cells/20 μL/well, and incubated at 37° C., 5% CO2 overnight. The compound (with 10 mM stock concentration) dose-response titrations were prepared [30 μM final ERK detection assay concentration and 1:3 dilutions, 10-point dose response] and appropriate amounts (270 nL) of test compounds were dispensed in a 384-well intermediate plate using an Echo 550 liquid handler. 30 μL/well of RPMI medium 1640-GlutaMAX™—I was added to the intermediate plate and the contents of the intermediate plate (10 μL/well) were then transferred to the 384-well collagen coated cell culture plate, which was incubated at 37° C., 5% CO2 for 2 hours. After removal of medium from the collagen coated cell culture plate, cells were lysed in lysis buffer from Alpha SureFire® Ultra™ Multiplex p-ERK and total ERK assay kit (PerkinElmer MPSU-PTERK) containing Halt™ Protease and Phosphatase inhibitor cocktail (ThermoFisher Scientific 78446) at room temperature with constant shaking at 300 rpm for 30 minutes. The cell lysates were then transferred to an OptiPlate-384 plate (PerkinElmer 6005620), and the phosphorylation of ERK (p-ERK) and total ERK levels were detected by Alpha SureFire® Ultra™ Multiplex p-EEK kit and total ERK assay kit (PerkinElmer MPSU-PTERK) following the manufacturer's protocol. Assay plates were read on a En Vision Multimode Plate Reader (PerkinElmer), and the ratio of p-ERK vs. total ERK in each well was used as the final readout. Dose response curves were analyzed using a 4-parameter logistic model to calculate IC50 values using Spotfire software.

KRAS-G12D = KRAS-G12D (Homo sapiens, UniProt P01116, G12D); experiment: SOS-catalyzed nucleotide exchange assay (Procedure A, TR-FRET), KRAS-G12D; assay type: biochemical; conditions: nucleotide exchange, read-out: KRAS G12D GNE IC50
Source text: as §1, §2, §3, §4, §5

KRAS-WT, sequence (P01116 with tags, fused parts or gaps isoform P01116-2): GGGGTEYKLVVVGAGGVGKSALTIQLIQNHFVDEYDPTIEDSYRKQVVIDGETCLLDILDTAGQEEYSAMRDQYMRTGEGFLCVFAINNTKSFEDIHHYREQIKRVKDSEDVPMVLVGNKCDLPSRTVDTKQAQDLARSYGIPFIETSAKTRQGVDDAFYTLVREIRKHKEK
KRAS-G12V, sequence (P01116 with tags, fused parts or gaps isoform P01116-2 G12V): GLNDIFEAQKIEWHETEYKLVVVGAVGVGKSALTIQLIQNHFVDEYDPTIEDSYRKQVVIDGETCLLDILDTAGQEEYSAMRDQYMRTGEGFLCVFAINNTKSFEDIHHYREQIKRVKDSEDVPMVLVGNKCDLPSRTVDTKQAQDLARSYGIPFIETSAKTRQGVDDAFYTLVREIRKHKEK
KRAS-G12D, sequence (P01116 with tags, fused parts or gaps isoform P01116-2 G12D): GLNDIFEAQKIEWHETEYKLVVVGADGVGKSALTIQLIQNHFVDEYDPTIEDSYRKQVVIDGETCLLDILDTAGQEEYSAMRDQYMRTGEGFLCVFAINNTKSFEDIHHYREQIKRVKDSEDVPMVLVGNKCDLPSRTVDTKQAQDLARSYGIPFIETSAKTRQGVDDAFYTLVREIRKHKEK

Row | Compound | IC50 (KRAS-G12V) [nM] | IC50 (KRAS-WT) [nM] | IC50 (AsPC-1 cells) [nM] | IC50 (KRAS-G12D) [nM]
1 | C[C@@]1(O)COCCN(c2nc(OC[C@@]34CCCN3C[C@H](F)C4)nc3sc4c(-c5c(C(F)F)c(C(F)(F)F)cc6[nH]ncc56)nccc4c23)C1 [Ex-61, (6S)-4-(8-(5-(difluoromethyl)-6-(trifluoromethyl)-1H-indazol-4-yl)-2-(((2R,7aS)-2-fluorotetrahydro-1H-pyrrolizin-7a(5H)-yl)methoxy)pyrido[4′,3′:4,5]thi-eno[2,3-d]pyrimidin-4-yl)-6-methyl-1,4-oxazepan-6-ol] | 236 | 231 | 1280 | 127
2 | C=C(c1c(C)cc2[nH]ncc2c1-c1nccc2c1sc1nc(OC[C@@]34CCCN3C[C@H](F)C4)nc(N3CCOC[C@@](C)(O)C3)c12)C(F)(F)F [Ex-66, (6S)-4-(2-(((2R,7aS)-2-fluorotetrahydro-1H-pyrrolizin-7a(5H)-yl)methoxy)-8-(6-methyl-5-(3,3,3-trifluoroprop-1-en-2-yl)-1H-indazol-4-yl)pyrido[4′,3′:4,5]thieno [2,3-d]pyrimidin-4-yl)-6-methyl-1,4-oxazepan-6-ol] | 57.9 | 218 | 457 | 93.6
3 | C[C@@]1(O)COCCN(c2nc(OC[C@@]34CCCN3C[C@H](F)C4)nc3sc4c(-c5c(-c6cc[nH]c6)c(Cl)cc6[nH]ncc56)nccc4c23)C1 [Ex-73, (6S)-4-(8-(6-chloro-5-(1H-pyrrol-3-yl)-1H-indazol-4-yl)-2-(((2R,7aS)-2-fluorotetrahydro-1H-pyrrolizin-7a(5H)-yl)methoxy)pyrido[4′,3′:4,5]thi-eno[2,3-d]pyrimidin-4-yl)-6-methyl-1,4-oxazepan-6-ol] | 52.2 | 60.4 | 1060 | 9.67
4 | C[C@@]1(O)COCCN(c2nc(OC[C@@]34CCCN3C[C@H](F)C4)nc3sc4c(-c5c(C6=CCC6)c(C(F)(F)F)cc6[nH]ncc56)nccc4c23)C1 [Ex-77, (6S)-4-(8-(5-(cyclobut-1-en-1-yl)-6-(trifluoromethyl)-1H-indazol-4-yl)-2-(((2R,7aS)-2-fluorotetrahydro-1H-pyrrolizin-7a(5H)-yl)methoxy)pyrido[4′,3′:4,5]thi-eno[2,3-d]pyrimidin-4-yl)-6-methyl-1,4-oxazepan-6-ol] | 20.8 | 61.8 | 175 | 15
5 | C[C@@]1(O)COCCN(c2nc(OC[C@@]34CCCN3C[C@H](F)C4)nc3sc4c(-c5c(-c6ccco6)c(C(F)(F)F)cc6[nH]ncc56)nccc4c23)C1 [Ex-78] | 84.8 | 194 | 434 | 94.7
6 | CN1CCC[C@@H]1COc1nc(N2CCOC[C@@](C)(O)C2)c2c(n1)sc1c(-c3c(C4CC4)c(C(F)(F)F)cc4[nH]ncc34)nccc12 [Ex-81, (6S)-4-(8-(5-cyclopropyl-6-(trifluoromethyl)-1H-indazol-4-yl)-2-(((R)-1-methylpyrrolidin-2-yl)methoxy)pyrido[4′,3′:4,5]thi-eno[2,3-d]pyrimidin-4-yl)-6-methyl-1,4-oxazepan-6-ol] | 86.2 | 164 | 1110 | 85.6
7 | C[C@H]1C[C@@H](COc2nc(N3CCOC[C@@](C)(O)C3)c3c(n2)sc2c(-c4c(C5CC5)c(C(F)(F)F)cc5[nH]ncc45)nccc23)N(C)C1 [Ex-82, (6S)-4-(8-(5-cyclopropyl-6-(trifluoromethyl)-1H-indazol-4-yl)-2-(((2S,4S)-1,4-dimethylpyrrolidin-2-yl)methoxy)pyrido[4′,3′:4,5]thi-eno[2,3-d]pyrimidin-4-yl)-6-methyl-1,4-oxazepan-6-ol] | 32.8 | 54.6 | 592 | 31.2
8 | C[C@@H]1C[C@@H](COc2nc(N3CCOC[C@@](C)(O)C3)c3c(n2)sc2c(-c4c(C5CC5)c(C(F)(F)F)cc5[nH]ncc45)nccc23)N(C)C1 [Ex-83, (6S)-4-(8-(5-cyclopropyl-6-(trifluoromethyl)-1H-indazol-4-yl)-2-(((2S,4R)-1,4-dimethylpyrrolidin-2-yl)methoxy)pyrido[4′,3′:4,5]thi-eno[2,3-d]pyrimidin-4-yl)-6-methyl-1,4-oxazepan-6-ol] | 103 | 130 | 1360 | 80.1
9 | CO[C@H]1C[C@@H](COc2nc(N3CCOC[C@@](C)(O)C3)c3c(n2)sc2c(-c4c(C5CC5)c(C(F)(F)F)cc5[nH]ncc45)nccc23)N(C)C1 [Ex-84, (6S)-4-(8-(5-cyclopropyl-6-(trifluoromethyl)-1H-indazol-4-yl)-2-(((2S,4S)-4-methoxy-1-methylpyrrolidin-2-yl)methoxy)pyrido[4′,3′:4,5]thi-eno[2,3-d]pyrimidin-4-yl)-6-methyl-1,4-oxazepan-6-ol] | 847 | 1380 | 2890 | 670
10 | CO[C@@H]1C[C@@H](COc2nc(N3CCOC[C@@](C)(O)C3)c3c(n2)sc2c(-c4c(C5CC5)c(C(F)(F)F)cc5[nH]ncc45)nccc23)N(C)C1 [Ex-85, (6S)-4-(8-(5-cyclopropyl-6-(trifluoromethyl)-1H-indazol-4-yl)-2-(((2S,4R)-4-methoxy-1-methylpyrrolidin-2-yl)methoxy)pyrido[4′,3′:4,5]thi-eno[2,3-d]pyrimidin-4-yl)-6-methyl-1,4-oxazepan-6-ol] | 44.3 | 81.1 | 764 | 38.8
